The values that follow come from US8193184B2, “Substituted sulphonamides, process for their preparation, pharmaceutical composition comprising thereof and their use” (Unimed Pharma, SPOL, S.R.O., priority 2007, dated 2012).

In general, melting point refers to the temperature of the solid-liquid transition.

Values joined by “and” are separate entries in the source; they are usually repeats but may differ in a detail not shown here. Identical values can stand only once. Counter-ions that a name gives are not always drawn.

Data set [1] has as its system intraocular pressure. Description: Intraocular pressure changes in vivo after application into the conjunctiva sac (Tono-Pen XL). On the set-up: species or system rabbit (Chinchilla). The following applies: for Measured intraocular pressure values, RE, 0.5 h / Measured intraocular pressure values, RE, 0.5 h, Average / Measured intraocular pressure values, RE, 1 h, Average / Measured intraocular pressure values, RE, 1 h / Measured intraocular pressure values, RE, 4 h, Average / Measured intraocular pressure values, RE, 4 h / Measured intraocular pressure values, RE, 7 h, Average / Measured intraocular pressure values, RE, 7 h / Measured intraocular pressure values, RE, 25 h, Average / Measured intraocular pressure values, RE, 25 h / Measured intraocular pressure values, RE, 31 h, Average / Measured intraocular pressure values, RE, 31 h: treated right eye. As for the experimental part:
The basic pharmacologic profile of the compounds of the general formula (I), which was focused on the determination of the intraocular pressure changes, was evaluated in in vivo conditions. In addition to the main potential therapeutic effect, related side responses were also monitored. In the experiments the laboratory animals of chinchilla species were used, because the normotension eye of this animal species provides the best reactivity. Adult male Chinchilla (in the age of one to one and half year), of 2000-3500 g, examined by veterinarian, without disease symptoms, grown under the standard conditions was used as the animal model. The solutions of tested compounds of the general formula (I) were always freshly prepared. The distilled water was used as a control. Measurement apparatus Tono-Pen®XL from Medtronic XOMED was used for measurement of the intraocular pressure. The intraocular pressure values were expressed in mmHg. At the first day of the experiment the solutions of the tested compounds of the general formula (I) were applied twice a day, specifically at 8.00 a.m. and 2.00 p.m. At the second day of the experiment the application was still in the 30th hour (i.e. at the second day at 2.00 p.m.). The solution of each compound was always applied in an amount of 2 drops into the right conjunctiva sac. The left eye served as a control. Into the conjunctiva sac of this eye (left), the same number of drop (2 drops) of distilled water was applied. The distilled water served as placebo. […] Standard requirements were kept in all measurements. The measurements started in the morning at 7.00 a.m. The measurement was accomplished with Tono-Pen® XL apparatus by soft perpendicular touch of the probe to the cornea of the rabbit five times successively. The measurement was accomplished on the both cornea (right and left eyes) before administration of the sample. Thus the normal values of the intraocular pressure for both the right and left eyes were obtained. Then at 8.00 a.m. 2 drops of tested compound were applied in the right eye and 2 drops of the distilled water were applied in the left eye. Further measurements were carried out after half an hour (at 8.30 a.m.), after one hour (at 9.00 a.m.), after four hours (at 12.00), after seven hours (at 3.00 p.m.), after 25 hours (on the second day at 9.00 a.m.) and after 31 hours from the application in the right eye (on the second day at 3.00 p.m). […] Moreover, 2 drops of the tested compound in the right eye and 2 drops of distilled water in the left eye were applied again in the same group of the rabbits in the first day at 2.00 p.m. (i.e. 6 hours after application of the first dose of the compound) and in the second day of the experiment at 2.00 p.m. (i.e. in the 30th hour of the experiment). Thus the changes caused by the repeated administration of the compound can be monitored. For each compound and each concentration 10 independent assays were carried out.

`CCN(CC)CCCNC(=O)c1ccc(S(N)(=O)=O)cc1` (as salt: ammonium) [II-4, 4-Sulfamoyl-N—(N,N-diethylaminopropyl)benzamide]: the melting point lay within 122 to 123 °C.
With `NS(=O)(=O)c1ccc(S(=O)(=O)NCCCN2CCOCC2)cc1` [Compound I-6, N-(Morpholinopropyl)benzene-1,4-bis(sulphonamide)], the “Measured intraocular pressure values, RE, 0.5 h” value is 7 mmHg (2×) and 8 mmHg and 9 mmHg (4×) and 11 mmHg and 12 mmHg and 15 mmHg in data set [1] (I-6 2% solution, 2 drops, 0.5 h after application, individual animals n 1-10, RE average before application (N) 12.9); 11 mmHg (2×) and 10 mmHg (3×) and 12 mmHg (2×) and 9 mmHg (2×) and 16 mmHg in data set [1] (I-6 2.5% solution, 2 drops, 0.5 h, individual animals n 1-10, N RE average 15.3). The “Measured intraocular pressure values, RE, 0.5 h, Average” value worked out at 9.6 mmHg in data set [1] (I-6 2%, 0.5 h, average of 10, N RE average 12.9) and 11 mmHg in data set [1] (I-6 2.5%, 0.5 h, average of 10, N RE average 15.3). In addition, the “Measured intraocular pressure values, RE, 1 h, Average” value in data set [1] (I-6 2%, 1 h, average of 10, N RE average 12.9) was found to be 10.3 mmHg; in data set [1] (I-6 2.5%, 1 h, average of 10, N RE average 15.3), 10.5 mmHg. Moreover, the “Measured intraocular pressure values, RE, 1 h” value was 9 mmHg (3×) and 8 mmHg (2×) and 14 mmHg and 11 mmHg and 10 mmHg and 13 mmHg and 12 mmHg in data set [1] (I-6 2%, 1 h, individual animals, N RE average 12.9); 10 mmHg (2×) and 9 mmHg (5×) and 13 mmHg and 16 mmHg and 11 mmHg in data set [1] (I-6 2.5%, 1 h, individual animals, N RE average 15.3). Further, the “Measured intraocular pressure values, RE, 4 h, Average” value in data set [1] (I-6 2%, 4 h, average of 10, N RE average 12.9) was 8.4 mmHg; in data set [1] (I-6 2.5%, 4 h, average of 10, N RE average 15.3), 10.1 mmHg. Further, the “Measured intraocular pressure values, RE, 4 h” value is 6 mmHg and 8 mmHg (3×) and 9 mmHg and 12 mmHg (2×) and 7 mmHg (3×) in data set [1] (I-6 2%, 4 h, individual animals, N RE average 12.9); 8 mmHg and 9 mmHg (3×) and 11 mmHg (3×) and 10 mmHg (2×) and 13 mmHg in data set [1] (I-6 2.5%, 4 h, individual animals, N RE average 15.3). The “Measured intraocular pressure values, RE, 7 h, Average” value was 7.3 mmHg in data set [1] (I-6 2%, 7 h (second dose at 6 h), average of 10, N RE average 12.9) and 9.6 mmHg in data set [1] (I-6 2.5%, 7 h (second dose at 6 h), average of 10, N RE average 15.3). The “Measured intraocular pressure values, RE, 7 h” value is 8 mmHg (3×) and 10 mmHg (2×) and 5 mmHg (2×) and 6 mmHg (2×) and 7 mmHg in data set [1] (I-6 2%, 7 h (second dose at 6 h), individual animals, N RE average 12.9); 9 mmHg (4×) and 8 mmHg (2×) and 10 mmHg and 11 mmHg and 16 mmHg and 7 mmHg in data set [1] (I-6 2.5%, 7 h (second dose at 6 h), individual animals, N RE average 15.3). Besides, the “Measured intraocular pressure values, RE, 25 h, Average” value in data set [1] (I-6 2%, 25 h, average of 10, N RE average 12.9) is 10.7 mmHg; in data set [1] (I-6 2.5%, 25 h, average of 10, N RE average 15.3) it was 13 mmHg. Also, the “Measured intraocular pressure values, RE, 25 h” value in data set [1] (I-6 2%, 25 h, individual animals, N RE average 12.9) was 9 mmHg (4×) and 12 mmHg (4×) and 15 mmHg and 8 mmHg; in data set [1] (I-6 2.5%, 25 h, individual animals, N RE average 15.3), 12 mmHg (3×) and 13 mmHg (3×) and 15 mmHg (2×) and 14 mmHg and 11 mmHg. Further, the “Measured intraocular pressure values, RE, 31 h, Average” value in data set [1] (I-6 2%, 31 h (dose at 30 h), average of 10, N RE average 12.9) was 10.4 mmHg; in data set [1] (I-6 2.5%, 31 h (dose at 30 h), average of 10, N RE average 15.3), 11.2 mmHg. The “Measured intraocular pressure values, RE, 31 h” value in data set [1] (I-6 2%, 31 h (dose at 30 h), individual animals, N RE average 12.9) is 10 mmHg (2×) and 9 mmHg (3×) and 11 mmHg (2×) and 13 mmHg and 8 mmHg and 14 mmHg; in data set [1] (I-6 2.5%, 31 h (dose at 30 h), individual animals, N RE average 15.3), 9 mmHg (4×) and 10 mmHg (2×) and 16 mmHg and 13 mmHg and 15 mmHg and 12 mmHg.
`NS(=O)(=O)c1ccc(C(=O)NCCCN2CCOCC2)cc1` [II-6, 4-Sulfamoyl-N-(morpholinopropyl)benzamide]: the “Measured intraocular pressure values, PO, 0.5 h” value in data set [1] (II-6 1% solution, 2 drops, treated right eye (PO), 0.5 h, individual animals n 1-10, N PO average 15.8) is 8 mmHg and 11 mmHg (2×) and 10 mmHg (3×) and 9 mmHg (2×) and 14 mmHg (2×). In addition, in data set [1] (II-6 1%, treated right eye (PO), 0.5 h, average of 10, N PO average 15.8), the “Measured intraocular pressure values, PO, 0.5 h, Average” value came out at 10.6 mmHg. The “Measured intraocular pressure values, PO, 1 h, Average” value in data set [1] (II-6 1%, treated right eye (PO), 1 h, average of 10, N PO average 15.8) amounted to 10.4 mmHg. In addition, the “Measured intraocular pressure values, PO, 1 h” value in data set [1] (II-6 1%, treated right eye (PO), 1 h, individual animals, N PO average 15.8) is 7 mmHg and 10 mmHg (3×) and 14 mmHg and 9 mmHg and 8 mmHg and 12 mmHg (3×). Moreover, the “Measured intraocular pressure values, PO, 4 h, Average” value in data set [1] (II-6 1%, treated right eye (PO), 4 h, average of 10, N PO average 15.8) is recorded as 9.6 mmHg. In addition, the “Measured intraocular pressure values, PO, 4 h” value in data set [1] (II-6 1%, treated right eye (PO), 4 h, individual animals, N PO average 15.8) is 12 mmHg and 10 mmHg and 9 mmHg and 11 mmHg (2×) and 8 mmHg (3×) and 6 mmHg and 13 mmHg. In addition, the “Measured intraocular pressure values, PO, 7 h, Average” value in data set [1] (II-6 1%, treated right eye (PO), 7 h (second dose at 6 h), average of 10, N PO average 15.8) worked out at 9.1 mmHg. Also, the “Measured intraocular pressure values, PO, 7 h” value in data set [1] (II-6 1%, treated right eye (PO), 7 h (second dose at 6 h), individual animals, N PO average 15.8) was 8 mmHg (2×) and 9 mmHg (3×) and 11 mmHg and 6 mmHg (2×) and 13 mmHg and 12 mmHg. Further, the “Measured intraocular pressure values, PO, 25 h, Average” value in data set [1] (II-6 1%, treated right eye (PO), 25 h, average of 10, N PO average 15.8) was 13.7 mmHg. In data set [1] (II-6 1%, treated right eye (PO), 25 h, individual animals, N PO average 15.8), the “Measured intraocular pressure values, PO, 25 h” value is 13 mmHg (3×) and 16 mmHg (2×) and 18 mmHg and 12 mmHg (4×). In addition, the “Measured intraocular pressure values, PO, 31 h, Average” value in data set [1] (II-6 1%, treated right eye (PO), 31 h (dose at 30 h), average of 10, N PO average 15.8) came out at 11.1 mmHg. In data set [1] (II-6 1%, treated right eye (PO), 31 h (dose at 30 h), individual animals, N PO average 15.8), the “Measured intraocular pressure values, PO, 31 h” value is 10 mmHg (3×) and 12 mmHg (2×) and 9 mmHg (2×) and 11 mmHg and 14 mmHg (2×).
